What was measured:
pRb (Ser780) = assay: High content imaging of Rb phosphorylation (Ser780), EFM-19; format: cell-based; settings: Homo sapiens, 16 hours, mean ± Stdev n = 2
Method: (§1) Relative IC50/EC50 values were determined by curve fitting to a four parameter logistic equation: Y = bottom + ((top-bottom)/ (1+exp(HillSlope*(X – LnIC50)), where X is the natural log of dose/concentration, Y is response, decreasing as X increases, top and bottom are plateaus in the same units as Y, lnIC50 is the natural log of potency, in the same log units as X, and HillSlope measures the steepness of the curve. Data were plotted using GraphPad Prism.
As controls, cells were treated with 10 µM palbociclib or vehicle ( 0.2 % v/v DMSO). Additional details for cell-based assays are provided in the Supplemental Methods. […]
www.impactjournals.com/oncotarget/ Oncotarget Supplementary Materials
Preclinical characterization of abemaciclib in hormone receptor […]
METHODS High content imaging cell-based assays for monitoring phosphorylation of Rb (ser780), G1 arrest and
Enzyme kinetics of CDK6/cyclin D3 complexes Cells were fixed with para-formaldehyde and Rb phosphorylation at Serine 780 was detected using CDK6/cyclin D3 activity was measured by the a primary mouse anti-Rb (PS780) antibody followed phosphorylation of CTRF using [g-33P] […] Plates were read in an kinase buffer containing 68 mM Hepes at pH 7.5, 6.67 mM Acumen Explorer eX3 (TTP Labtech). […]
(EDTA) was used to determine the level of background evaluated by measuring PI signal using high content 33P in the absence of enzyme activity. […]

FOXM1 = FOXM1 protein expression, EFM-19; format: cell-based; settings: Homo sapiens, 1 DT, read-out: IC50 reduction in FOXM1 positive cells
Method: as §1
After 72 hours, cells were stained with an anti-FOXM1 antibody and a secondary goat anti-rabbit IgG, Alexa Fluor® 488 conjugate; nuclei were stained with propidium iodide (PI). Alternatively, for assessment of Ki-67 levels, cells were treated for 2 DT and then stained with Ki-67 and a secondary goat anti-rabbit IgG, Alexa Fluor® 488 conjugate. Plates were read in an Acumen Explorer Ex3 (TTP Labtech) using Cellista software and the percentages of FOXM1 positive and Ki-67 positive cells were calculated over the background signal. Data were normalized in Excel using the mean value obtained from treatment with 2 µM BEZ235 as the minimum and the mean value obtained from treatment with 0.2% DMSO as the maximum.

ZR-75-1 xenograft = ZR-75-1 xenograft efficacy in NOD SCID mice; format: in vivo, mouse
Method: Control animals were treated with vehicle (1% HEC/ 25 mM phosphate buffer, pH = 2) using the same schedule of dosing. The red bar just above the X-axis illustrates the duration of the treatment period. Tumor volume measurements were taken routinely during the course of the study and are plotted as mean +/- SEM versus days following tumor cell implantation. (B) Body weights were recorded routinely during the course of the study and are plotted as mean % change (+/– SEM) relative to the mean body weight recorded on the day just prior to the first day of dosing (baseline day = 27). (C) The waterfall plots indicate the relative tumor volumes for individual animals which were determined at the end of the dosing period (study day 55). […] Growth inhibition is observed in those instances where the calculated changes in %DT/C are less than 100% whereby greater inhibition results in smaller %DT/C values. Change in %DT/C values that are less than zero indicate regressions whereby the tumor volumes on day 55 are smaller than the baseline tumor volume measured on the day prior to the initiation of dosing (baseline day = day 27). […] The tumor volumes measured on day 27 served as the baseline volumes for the calculation of %DT/C. […] Potential CDK9 inhibition was assessed by measuring the expression of MCL1 or phosphorylation of serine 2 on the C-terminal domain repeat on RNA polymerase II (pCTD). […]

IC50 (pRb (Ser780)): 12 ± 11 nM
IC50 (FOXM1): 8 nM
SMILES: CCN1CCN(Cc2ccc(Nc3ncc(F)c(-c4cc(F)c5nc(C)n(C(C)C)c5c4)n3)nc2)CC1 [abemaciclib, Abemaciclib]
tumor volume (ZR-75-1 xenograft; 75 mg/kg PO QDx28, NOD SCID mice, ZR-75-1 xenograft): measured reduction in tumor volume (regression)
anti-tumor activity (ZR-75-1 xenograft; 50 or 75 mg/kg PO QDx28, single agent): Dose-dependent anti-tumor activity

From publication PMC5642494 (Oncotarget, 2017)
